Experimental data reported in publication PMC7311950, “Potent Tetrahydroquinolone Eliminates Apicomplexan Parasites” (Frontiers in Cellular and Infection Microbiology, 2020).
pIC50: −log10 of the molar value. Converted amounts (≈) assume the structure as drawn.

Legend:
[1] = Metabolic stability in mouse liver microsomes; details: mouse, liver microsomes, T1/2 (M), predicted half-life in mouse liver microsomes; Figure 1A; min in Figure 2E for the same values
Procedure: (§1) The effects of changing R1 as 7-Et, 7-Me, 6-CF3, or 6-Me on activity against RH strain tachyzoites, kinetic solubility, and metabolic stability were compared. Kinetic solubility and metabolic stability in human or murine liver microsomes were measured. The hERG (human Ether-à-go-go-Related) liability was also determined. The hERG gene (KCNH2) encodes a protein Kv11.1, the alpha subunit of a potassium ion channel. This channel conducts the rapid component of the delayed rectifier potassium current, IKr, which is critical for repolarization of cardiac action potentials. A reduction in hERG currents from adverse drug effects can lead to long QT interval syndromes. These syndromes are characterized by action potential prolongation, lengthening of the QT interval on surface EKG, and an increased risk for “torsade de pointes” arrhythmias and sudden death. The MDCK-MDR1 Permeability Assay was also performed. MDCK-MDR1 refers to the ability of a compound to permeate across membranes of MDCK-MDR1 (Madin Darby canine kidney [MDCK] cells with the MDR1 gene [ABCB1], the gene encoding for the efflux protein, P-glycoprotein (P-gp)) in vitro. Assessing transport in both directions (apical to basolateral and basolateral to apical) across the cell monolayers enables an efflux ratio to be determined. […] This provides a prediction of blood brain barrier (BBB) penetration potential/permeability and efflux ratio. Effect in CACO-2 (Colon Adenocarcinoma cells) as a permeability assay and on cytochrome P450 (CYP 450) were also determined. CYP enzymes catalyze oxidative biotransformation (phase 1 metabolism) of most drugs. CYP enzymes, bind to membranes in a cell (cyto) and contain a heme pigment (chrome and P) that absorbs light at a wavelength of 450 nm when exposed to carbon monoxide. Metabolism of a drug by CYP enzymes is a major source of variability in drug effect. These were measured by Chem Partners. The relative effect on HFF and parasite enzymes also were compared.
(§2) In vitro absorption, distribution, metabolism, excretion, and toxicity (ADMET) analyses of the THQ compounds were outsourced to ChemPartner Shanghai Ltd. ELQ-271 (synthesized in-house) was tested as a comparison.

[2] = system: T. gondii RH-YFP tachyzoites; experiment: In vitro challenge assay, RH strain YFP tachyzoites in HFF; format: cell-based; details: Toxoplasma gondii; RH-YFP tachyzoites in HFF; Figure 1A; read-out: Tachy IC50
Procedure: RH strain YFP Tachyzoites. Protocol was adapted from Fomovska et al. ([2012a],[b]) for HFF. HFF were cultured on a flat, clear-bottomed, black 96-well plate to 90–100% confluence. IMDM (1x, [+] glutamine, [+] 25 mM HEPES, [+] Phenol red, 10% FBS [Gibco, Denmark]) was removed and replaced with IMDM-C(1x, [+] glutamine, [+] 25 mM HEPES, [–] Phenol red, 10% FBS)[Gibco, Denmark]). RH-YFP, lysed from host cells by passing twice through a 27-gauge needle, were counted, then diluted to 32,000/mL in IMDM-C. HFF were infected with 3200 RH-YFP, then returned to 37°C, CO2 (5%) incubator for 1–2 h for infection. Various concentrations of the compounds in 20 μL IMDM-C were added to each well. There were triplicates for each condition. Controls were pyrimethamine/sulfadiazine (standard treatment), 0.1% DMSO only, HFF only, and untreated cultures of HFF infected with 2-fold dilutions of YFP expressing parasites (called “YFP gradient” to establish amount of color from known numbers of YFP expressing parasites). Cells were incubated at 37°C for 72 h. Plates were read using a fluorimeter (Synergy H4 Hybrid Reader, BioTek) to ascertain amount of relative fluorescence units (RFU) YFP, to measure parasite burden after treatment. Data were collected using Gen5 software with IC50 calculated by graphical analysis in Excel.
An initial screening assay of 10 μM, 1 μM, 100 nM, and 10 nM of the compounds was performed. Compounds were not considered effective or pursued for further analysis if there was no inhibition of tachyzoites at 1 μM. If compounds were effective at 1 μM, another experiment was performed to assess effect at 1 μM, 500, 250, 125, 62.5, and 31.25 nM.

[3] = Kinetic solubility in PBS pH 7.4 (Chem Partners); details: PBS; for solubility kinetic: pH 7.4, aqueous buffer, kinetic from dmso stock
Procedure: as §1

[4] = system: T. gondii EGS strain bradyzoites; experiment: In vitro challenge assay for EGS strain bradyzoites; format: cell-based, Toxoplasma gondii; details: Toxoplasma gondii; EGS strain in HFF; Figure 1A; read-out: Brady IC50
Procedure: HFF cells were grown in IMDM on removable, sterile glass cover slips in the bottom of a clear, flat-bottomed 24-well plate. Cultures were infected with 3 × 10^4 EGS strain parasites per well, in 0.5 mL media. The plate was returned to incubator at 37°C overnight. The following day, the media was removed. Colorless IMDM and compounds were added to make various concentrations of the drug. Total volume was 0.5 mL. Two wells had media only, as a control. Plates were returned to the 37°C incubator for 72 h, checked once each 24 h. If tachyzoites were visible in the control before 72 h, cells were fixed and stained. Cells were fixed using 4% paraformaldehyde and stained with Fluorescein-labeled Dolichos Biflorus Agglutinin, DAPI, and antibody to BAG1. Disks were removed, mounted on glass slides, and visualized using microscopy (Nikon Tl7). Slides were scanned using a CRi Panoramic Scan Whole Slide Scanner and viewed using Panoramic Viewer Software. Effects of compounds were quantitated by counting cysts in controls and treated cultures. Dolichos staining delimited structures and single organisms that remained were counted in a representative field of view. This was then multiplied by a factor determined by the total area of the cover slip in order to estimate the number of cysts and organisms in each condition. When the following forms were observed: “true cysts” with a dolichos-staining wall, “pseudocysts” or tight clusters of parasites, and small organisms, if there were fewer than four parasites visible in a cluster, organisms were counted individually (as “small organisms”). The entire scanned coverslip with all fields was also reviewed by 3 observers to confirm consistency.

[5] = Metabolic stability in human liver microsomes; details: human, liver microsomes
Procedure: as §1, §2

Cc1[nH]c2c(c(=O)c1-c1ccc(Oc3cccc(OC(F)(F)F)c3)cc1)CCCC2 [AS006]
half-life [1]: 25.9 min
pIC50 [2]: 7.22
solubility kinetic [3]: 0.55 µM (≈ 0.228 µg/mL)
pIC50 [4]: 6.00

Cc1[nH]c2c(c(=O)c1-c1ccc(Oc3cccc(C(F)(F)F)c3)cc1)CCCC2 [AS012]
half-life [1]: 30.1 min
pIC50 [2]: 6.59
solubility kinetic [3]: 2.19 µM (≈ 0.875 µg/mL)

Cc1[nH]c2c(c(=O)c1-c1ccc(Oc3ccc(F)c(Cl)c3)cc1)CCCC2 [AS021]
half-life [1]: 41.1 min
pIC50 [2]: 7.19
solubility kinetic [3]: 2 µM (≈ 0.768 µg/mL)
pIC50 [4]: 6.00

Cc1[nH]c2c(c(=O)c1-c1ccc(Oc3cc(Cl)cc(Cl)c3)cc1)CCCC2 [AS022]
half-life [1]: 28.6 min
pIC50 [2]: 7.52
solubility kinetic [3]: 6.25 µM (≈ 2.5 µg/mL)
pIC50 [4]: 6.00

Cc1[nH]c2c(c(=O)c1-c1ccc(Oc3ccc4c(c3)OCO4)cc1)CCCC2 [AS032]
pIC50 [2]: 6.70

Cc1[nH]c2c(c(=O)c1-c1ccc(Oc3cc(Cl)nc(Cl)c3)cc1)CCCC2 [AS034]
half-life [1]: 24.9 min
pIC50 [2]: 6.55
solubility kinetic [3]: 5.05 µM (≈ 2.03 µg/mL)

Cc1[nH]c2ccccc2c(=O)c1-c1ccc(Oc2ccc(OC(F)(F)F)cc2)cc1 [ELQ271, reference compound]
half-life [1]: 448 min
pIC50 [2]: 7.52
solubility ([3]; pH 7.4, aqueous solubility (PBS, pH 7.4), amorphous compounds): 0.2 µM (≈ 0.0823 µg/mL)
pIC50 [4]: 5.30

Cc1c(-c2ccc(Oc3ccc(OC(F)(F)F)cc3)cc2)c(=O)c2c(n1C)CCCC2 [JAG023]
pIC50 [2]: 6.10

Cc1[nH]c2c(c(=O)c1-c1ccc(Oc3ccc(F)cc3)cc1)CCCC2 [JAG058]
half-life [5]: 263 min
half-life [1]: 39.2 min
pIC50 [2]: 7.40
solubility kinetic [3]: 2.38 µM (≈ 0.832 µg/mL)
pIC50 [4]: 6.00

Cc1[nH]c2c(c(=O)c1-c1ccc(Oc3cccc(Cl)c3)cc1)CCCC2 [JAG062]
half-life [5]: 135 min
half-life [1]: 12.4 min
pIC50 [2]: 7.80
solubility kinetic [3]: 0.33 µM (≈ 0.121 µg/mL)
pIC50 [4]: 6.00

Cc1[nH]c2c(c(=O)c1-c1ccc(Oc3ccc(C(F)(F)F)cc3)cc1)CCCC2 [JAG063]
half-life [5]: 537 min
half-life [1]: 127 min
pIC50 [2]: 6.70
solubility kinetic [3]: 0.45 µM (≈ 0.18 µg/mL)

Cc1[nH]c2c(c(=O)c1-c1ccc(Oc3cccc(F)c3)cc1)CCCC2 [JAG069]
half-life [5]: 202 min
half-life [1]: 17.4 min
pIC50 [2]: 7.52
solubility kinetic [3]: 0.5 µM (≈ 0.175 µg/mL)
pIC50 [4]: 6.00

Cc1[nH]c2c(c(=O)c1-c1ccc(Oc3ccc(Cl)c(Cl)c3)cc1)CCCC2 [JAG084]
half-life [1]: 63.1 min
pIC50 [2]: 7.26
solubility kinetic [3]: 0.68 µM (≈ 0.272 µg/mL)
pIC50 [4]: 6.00

O=C(O)c1[nH]c2c(c(=O)c1-c1ccc(Oc3ccc(OC(F)(F)F)cc3)cc1)CCCC2 [JAG091]
pIC50 [2]: < 5.00

Cc1[nH]c2c(c(=O)c1-c1ccc(O)cc1)CCCC2 [JAG094]
pIC50 [2]: 6.00

Cc1[nH]c2c(c(=O)c1-c1ccc(Oc3ccc(OC(F)(F)F)cc3)cc1)CC(C(F)(F)F)CC2 (centres unmarked) [JAG100]
pIC50 [2]: < 5.00

Cc1[nH]c2c(c(=O)c1-c1ccc(Oc3ccc(OC(F)(F)F)cc3)cc1)CC(C)CC2 (centres unmarked) [JAG106]
pIC50 [2]: 5.60

Cc1[nH]c2c(c(=O)c1-c1ccc(Oc3ccc(OC(F)(F)F)cc3)cc1)CCC(C)C2 (centres unmarked) [JAG107]
half-life [1]: 112 min
pIC50 [2]: 7.30
solubility kinetic [3]: 0.03 µM (≈ 0.0129 µg/mL)

CCC1CCc2c([nH]c(C)c(-c3ccc(Oc4ccc(OC(F)(F)F)cc4)cc3)c2=O)C1 (centres unmarked) [JAG121]
half-life [1]: 63.3 min
pIC50 [2]: 7.26
solubility kinetic [3]: 0.16 µM (≈ 0.071 µg/mL)

Cc1[nH]c2cnccc2c(=O)c1-c1ccc(Oc2ccc(OC(F)(F)F)cc2)cc1 [JAG129]
pIC50 [2]: 7.07
solubility kinetic [3]: 5.12 µM (≈ 2.11 µg/mL)

Cc1[nH]c2c(c(=O)c1-c1ccc(Oc3ccc(OC(F)(F)F)cc3)cc1)CCC(C(F)(F)F)C2 (centres unmarked) [JAG162]
half-life [1]: 144 min
pIC50 [2]: 6.52
solubility kinetic [3]: 0.02 µM (≈ 0.00967 µg/mL)

CCOC(=O)Oc1c2c(nc(C)c1-c1ccc(Oc3ccc(OC(F)(F)F)cc3)cc1)CCCC2 [JAG171]
pIC50 [2]: 7.00

CCC1CCc2c([nH]c(CO)c(-c3ccc(Oc4ccc(OC(F)(F)F)cc4)cc3)c2=O)C1 (centres unmarked) [JAG174]
pIC50 [2]: 6.42

O=c1c2c([nH]c(CO)c1-c1ccc(Oc3ccc(OC(F)(F)F)cc3)cc1)CC(C(F)(F)F)CC2 (centres unmarked) [JAG187]
pIC50 [2]: 5.70

CC1CCc2c([nH]c(CO)c(-c3ccc(Oc4ccc(OC(F)(F)F)cc4)cc3)c2=O)C1 (centres unmarked) [JAG193]
pIC50 [2]: 7.30

Cc1[nH]c2c(c(=O)c1-c1ccc(Oc3cc(Cl)cc(Cl)c3)cc1)CCC(C)C2 (centres unmarked) [JAG208]
pIC50 [2]: 7.70
pIC50 [4]: 6.00

Cc1[nH]c2ccccc2c(=O)c1-c1ccc(Oc2ccccc2)cc1 [MJM129]
pIC50 [2]: 7.30
pIC50 [4]: < 5.00

Cc1[nH]c2ccnn2c(=O)c1-c1ccc(Oc2ccc(OC(F)(F)F)cc2)cc1 [MJM141]
half-life [5]: 278 min
pIC50 [2]: 5.09
solubility kinetic [3]: 0.94 µM (≈ 0.377 µg/mL)
pIC50 [4]: 5.00
